{"source": "patent US20100256153A1", "about": "“METHODS FOR PREVENTING OR REDUCING RISK OF MORTALITY” (priority 2009, published 2010)", "key": {"non-diabetic mice": {"test_system": "non-diabetic mice", "experiment": "Two year survival of non-diabetic mice (FIGS. 9-10)", "type": "in vivo, mouse", "settings": "50 mg/kg/day, two years", "excerpt": "(§1) In these studies, approximately sixty animals of each gender were exposed to saxagliptin or two cohorts of placebo over two years, the approximate lifetime of a rodent. […] The differences in survival time between male and female rodents are not currently explained. A possible explanation for the rat results is that the dose taken by male rats, 45 times the human equivalent dose, was closer to the human experience than the same dose taken by female rats, 112 times the human equivalent dose, and therefore the male experience may be more relevant."}, "non-diabetic rats": {"test_system": "non-diabetic rats", "experiment": "Two year survival of non-diabetic rats (FIGS. 7-8)", "type": "in vivo, rat", "settings": "25 mg/kg/day, two years", "excerpt": "as §1"}, "subjects": {"test_system": "subjects", "experiment": "Phase 1-3 clinical development, tolerability", "type": "in vivo, human"}, "[1]": {"test_system": "Phase 2b/3 pooled population", "experiment": "Pooled analysis of cardiovascular events and death in the Phase 2b/3 clinical studies", "type": "in vivo, human", "settings": "for CEC-CV death/MI/stroke: CEC-adjudicated; for All MI / All stroke: fatal and/or non-fatal", "protocol": "The mortality and adverse CV event data shown in the Tables and Figures herein were analyzed from the Phase 2b and Phase 3 studies (Phase 2b/3).\nMortality incidences caused by stroke, heart attack, heart failure, or blood vessel problems not associated with the heart or brain, were defined as CV death. Death by any means, including CV death, was defined as All-cause Mortality or All-cause death.\nAcute CV events, as defined herein, includes all cardiovascular disorders associated with Phase 2b/3 subjects that were diagnosed by a medical physician during the studies as acute and clinically significant including MACE events and also procedures (for example, cardiac bypass surgery) and severe ischemic event such as unstable angina. Primary MACE means non-fatal myocardial infarction (MI), non-fatal stroke, and CV death. Secondary MACE accounts for All-cause deaths (death by any means) in addition to non-fatal MI, non-fatal stroke, and CV death.\nFirst, two physicians at the Clinical Event Center (CEC) of the Duke Clinical Research Institute (Durham, N.C.) served as consultants to the sponsor and performed a retrospective treatment-blinded independent adjudication of all identified potential CV events. […] Adjudication was based on definitions typical for such review and prespecified by the reviewers."}, "[2]": {"test_system": "subjects of pooled studies", "experiment": "Ischemic serious adverse events (heart or brain related) in pooled studies, Fischer Exact Test analysis (FIG. 12)", "type": "in vivo, human", "settings": "FIG. 12, per 100 comparator"}, "[3]": {"test_system": "subjects administered sitagliptin or metformin", "experiment": "Health insurance data analysis of heart attack, sitagliptin relative to metformin (FIG. 13)", "type": "in vivo, human", "settings": "propensity adjusted, 27,424 sitagliptin vs 80,462 metformin subjects"}, "[4]": {"settings": "All Saxa (2.5, 5, 10, 20, 40, 100 mg/d), N = 3356"}, "[5]": {"settings": "CEC adjudication, all saxagliptin"}}, "data": [{"smiles": "N#C[C@@H]1C[C@@H]2C[C@@H]2N1C(=O)[C@@H](N)C12CC3CC(CC(O)(C3)C1)C2", "note": "[saxagliptin, (1S,3S,5S)-2-[(2S)-2-amino-2-(3-hydroxyadamantan-1-yl)acetyl]-2-azabicyclo[3.1.0]hexane-3-carbonitrile]", "values": [{"measurement": "survival versus placebo", "setting": "non-diabetic mice; female mice, FIG. 9", "result": "reduced risk of mortality"}, {"measurement": "survival versus placebo", "setting": "non-diabetic mice; male mice, FIG. 10", "result": "intermediate between the two placebo cohorts"}, {"measurement": "survival versus placebo", "setting": "non-diabetic rats; female rats, FIG. 8", "result": "intermediate between the two placebo cohorts"}, {"measurement": "survival versus placebo", "setting": "non-diabetic rats; male rats, FIG. 7", "result": "reduced risk of mortality or longer survival times"}, {"measurement": "adverse CV effects related to blood pressure or heart rate", "setting": "subjects; Phase 1-3 studies overall", "result": "did not lead to adverse CV effects"}, {"measurement": "tolerability", "setting": "subjects; maximum oral daily doses 400 mg up to 2 weeks, 100 mg up to 6 weeks, 40 and 20 mg up to 12 weeks, 2.5, 5, 10 mg up to 2 years", "result": "well tolerated"}, {"measurement": "subjects having a Primary MACE (CV death/MI/stroke)", "setting": "[1]; ALL SAXA group", "result": 0.7, "unit": "%"}, {"measurement": "Inv-CV death/MI/stroke", "setting": "[1]; [4]", "result": "23 (0.7) n (%)"}, {"measurement": "CEC-CV death/MI/stroke", "setting": "[1]; [4]", "result": "22 (0.7) n (%)"}, {"measurement": "All death", "setting": "[1]; All Saxa, N = 3356", "result": "10 (0.3) n (%)"}, {"measurement": "Other CV death", "setting": "[1]; All Saxa, N = 3356", "result": "4 (0.1) n (%)"}, {"measurement": "All MI", "setting": "[1]; All Saxa, N = 3356", "result": "8 (0.2) n (%)"}, {"measurement": "All stroke", "setting": "[1]; All Saxa, N = 3356", "result": "11 (0.3) n (%)"}, {"measurement": "All Stroke (fatal and non-fatal), proportion of subjects with events", "setting": "[1]; [5]", "result": 0.3, "unit": "%"}, {"measurement": "Other CV death, proportion of subjects with events", "setting": "[1]; [5]", "result": 0.1, "unit": "%"}, {"measurement": "all MI, proportion of subjects with events", "setting": "[1]; [5]", "result": 0.2, "unit": "%"}, {"measurement": "Acute CV Events, Incidence rate ± SE", "setting": "[1]; Phase 2/3 Pooled Population", "result": "10.7 ± 1.8", "unit": "events/1000 patient-years"}, {"measurement": "Primary MACE, Incidence rate ± SE", "setting": "[1]; Phase 2/3 Pooled Population", "result": "6.2 ± 1.3", "unit": "events/1000 patient-years"}, {"measurement": "Secondary MACE, Incidence rate ± SE", "setting": "[1]; Phase 2/3 Pooled Population", "result": "7.0 ± 1.4", "unit": "events/1000 patient-years"}, {"measurement": "All death", "setting": "[1]; Saxa 2.5 mg, N = 937", "result": "3 (0.3) n (%)"}, {"measurement": "Inv-CV death/MI/stroke", "setting": "[1]; Saxa 2.5 mg, N = 937", "result": "6 (0.6) n (%)"}, {"measurement": "Other CV death", "setting": "[1]; Saxa 2.5 mg, N = 937", "result": "0 n (%)"}, {"measurement": "CEC-CV death/MI/stroke", "setting": "[1]; Saxa 2.5 mg, N = 937", "result": "6 (0.6) n (%)"}, {"measurement": "All MI", "setting": "[1]; Saxa 2.5 mg, N = 937", "result": "2 (0.2) n (%)"}, {"measurement": "All stroke", "setting": "[1]; Saxa 2.5 mg, N = 937", "result": "4 (0.4) n (%)"}, {"measurement": "All death", "setting": "[1]; Saxa 5 mg, N = 1269", "result": "3 (0.2) n (%)"}, {"measurement": "Inv-CV death/MI/stroke", "setting": "[1]; Saxa 5 mg, N = 1269", "result": "6 (0.5) n (%)"}, {"measurement": "Other CV death", "setting": "[1]; Saxa 5 mg, N = 1269", "result": "0 n (%)"}, {"measurement": "CEC-CV death/MI/stroke", "setting": "[1]; Saxa 5 mg, N = 1269", "result": "7 (0.6) n (%)"}, {"measurement": "All MI", "setting": "[1]; Saxa 5 mg, N = 1269", "result": "4 (0.3) n (%)"}, {"measurement": "All stroke", "setting": "[1]; Saxa 5 mg, N = 1269", "result": "4 (0.3) n (%)"}, {"measurement": "All death", "setting": "[1]; Saxa 10 mg, N = 1000", "result": "4 (0.4) n (%)"}, {"measurement": "Inv-CV death/MI/stroke", "setting": "[1]; Saxa 10 mg, N = 1000", "result": "11 (1.1) n (%)"}, {"measurement": "Other CV death", "setting": "[1]; Saxa 10 mg, N = 1000", "result": "4 (0.4) n (%)"}, {"measurement": "CEC-CV death/MI/stroke", "setting": "[1]; Saxa 10 mg, N = 1000", "result": "9 (0.9) n (%)"}, {"measurement": "All MI", "setting": "[1]; Saxa 10 mg, N = 1000", "result": "2 (0.2) n (%)"}, {"measurement": "All stroke", "setting": "[1]; Saxa 10 mg, N = 1000", "result": "3 (0.3) n (%)"}, {"measurement": "Proportion of subjects with SAE CHF events", "setting": "[1]; all saxagliptin", "result": 0.2, "unit": "%"}, {"measurement": "overall frequency of CV deaths", "setting": "[1]; all subjects treated with saxagliptin (7/3356)", "result": 0.2, "unit": "%"}, {"measurement": "all cause mortality (death by any means), frequency", "setting": "[1]; all subjects treated with saxagliptin (10/3356)", "result": 0.3, "unit": "%"}, {"measurement": "incidence of MACE events in higher risk subgroups versus control", "setting": "[1]; at least one or two CV risk factors in addition to T2DM, history of hypertension or hypercholesterolemia, males, FIGS. 3, 4", "result": "lowered incidence MACE events"}, {"measurement": "MACE events incidence rate", "setting": "[1]; subjects with a history of CV disease, FIG. 3", "result": "9.2 MACE events per 1000 patient-years"}, {"measurement": "fatal CHF events", "setting": "[1]; two fatal events in total, both on comparator", "result": "none"}, {"measurement": "ischemic SAEs (heart attack or stroke-like events causing death, hospitalization, or near hospitalization), subjects on drug when 100 subjects on comparator had events", "setting": "[2]", "result": 57, "unit": "subjects"}]}, {"smiles": "N#C[C@@H]1CCCN1C(=O)CNC12CC3CC(CC(O)(C3)C1)C2", "note": "[vildagliptin, reference compound]", "values": [{"measurement": "ischemic SAEs (heart attack or stroke-like events causing death, hospitalization, or near hospitalization), subjects on drug when 100 subjects on comparator had events", "setting": "[2]", "result": 70, "unit": "subjects"}]}, {"smiles": "N[C@@H](CC(=O)N1CCn2c(nnc2C(F)(F)F)C1)Cc1cc(F)c(F)cc1F", "note": "[sitagliptin]", "values": [{"measurement": "heart attack, subjects on sitagliptin in the time 100 subjects have a heart attack on metformin", "setting": "[3]", "result": 65, "unit": "subjects"}]}]}
